Counter-ions that a name gives are not always drawn. Like-named read-outs stand apart in the source and are kept apart here.
What was measured:
[1] = Solubility by laser nephelometry; settings: dilutions up to 77 μM
[2] = biological target: T1, human Cdc7-Dbf4 kinase (Cdc7-Dbf4 heterodimer) (Homo sapiens, UniProt O00311); test: Cdc7-Dbf4 kinase assay with the LUM method; format: biochemical; settings: for ADP production IC50: LUM method, 12.5 μM ATP, up to 77 μM compound, duplicate, N.E. = no effect
[3] = biological target: T1, human Cdc7-Dbf4 kinase (Cdc7-Dbf4 heterodimer); test: Cdc7-Dbf4 kinase assay with the SPA method; format: biochemical; settings: 45 mM EDTA in 1% DMSO, 25 μM [γ-33P]-ATP
[4] = test system: luminescence detection (luciferase luminescence signal); test: Dose response in the luminescence detection step of the LUM method
[5] = test system: ADP processing (ATP depletion, ATP regeneration, luciferase reaction); test: Dose response in the ADP processing step of the LUM method; format: biochemical

T1 sequence (O00311 whole entry): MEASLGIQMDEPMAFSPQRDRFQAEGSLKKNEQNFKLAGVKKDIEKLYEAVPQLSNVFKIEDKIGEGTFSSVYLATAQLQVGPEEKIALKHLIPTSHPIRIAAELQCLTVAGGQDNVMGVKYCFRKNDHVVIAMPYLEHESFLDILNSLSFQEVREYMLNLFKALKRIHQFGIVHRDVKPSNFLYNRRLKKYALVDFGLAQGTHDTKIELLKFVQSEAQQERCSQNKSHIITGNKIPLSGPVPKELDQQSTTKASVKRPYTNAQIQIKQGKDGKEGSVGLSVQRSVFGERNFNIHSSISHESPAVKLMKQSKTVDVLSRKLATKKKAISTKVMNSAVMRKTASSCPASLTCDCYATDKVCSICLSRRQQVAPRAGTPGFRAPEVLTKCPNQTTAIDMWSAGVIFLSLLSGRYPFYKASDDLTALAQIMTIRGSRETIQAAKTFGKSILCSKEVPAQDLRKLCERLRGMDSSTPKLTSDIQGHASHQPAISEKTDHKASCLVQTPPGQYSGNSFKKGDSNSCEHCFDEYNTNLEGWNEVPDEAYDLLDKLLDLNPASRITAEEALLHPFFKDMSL
T1 sequence (Q9UBU7 whole entry partner): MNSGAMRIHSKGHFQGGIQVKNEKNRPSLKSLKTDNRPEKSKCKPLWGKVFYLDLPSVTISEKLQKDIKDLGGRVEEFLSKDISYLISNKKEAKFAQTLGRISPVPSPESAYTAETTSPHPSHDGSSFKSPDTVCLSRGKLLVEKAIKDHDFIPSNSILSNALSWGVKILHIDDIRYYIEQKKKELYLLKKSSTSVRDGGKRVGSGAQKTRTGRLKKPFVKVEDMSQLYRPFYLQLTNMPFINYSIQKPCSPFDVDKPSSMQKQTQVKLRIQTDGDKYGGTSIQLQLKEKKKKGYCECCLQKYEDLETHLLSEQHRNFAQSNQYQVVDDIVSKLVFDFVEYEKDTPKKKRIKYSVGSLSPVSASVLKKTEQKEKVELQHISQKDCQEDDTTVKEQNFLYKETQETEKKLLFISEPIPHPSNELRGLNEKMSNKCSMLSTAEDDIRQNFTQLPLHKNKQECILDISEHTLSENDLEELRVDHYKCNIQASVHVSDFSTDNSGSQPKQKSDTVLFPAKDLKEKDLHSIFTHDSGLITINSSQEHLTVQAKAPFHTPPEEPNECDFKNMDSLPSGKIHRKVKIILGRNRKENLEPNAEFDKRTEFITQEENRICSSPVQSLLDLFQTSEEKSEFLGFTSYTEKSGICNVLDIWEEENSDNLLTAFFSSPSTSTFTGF

| Molecule | Solubility [1] | ADP production IC50 [2] | also measured |
| --- | --- | --- | --- |
| O=C(O)/C=C/c1ccc(O)c(O)c1 [Caffeic acid] | Soluble |  |  |
| O=c1c(-c2cc(O)c(O)c(O)c2)coc2cc(O)c(O)c(O)c12 [Irigenol] | Soluble |  |  |
| O=C1C=C2CC3(O)COc4c(ccc(O)c4O)C3=C2C=C1O (stereo not drawn) [Hematein] | Soluble |  |  |
| O=c1c(O)c(-c2cc(O)c(O)c(O)c2)oc2cc(O)cc(O)c12 [Myricetin] | Soluble |  |  |
| CCOC(=O)[C@H](CCc1ccccc1)N[C@@H](C)C(=O)N1CCC[C@H]1C(=O)O [Enalapril maleate, reference compound] | Soluble | N.E. ^1 |  |
| O=C(CCCCC(=O)Nc1c(I)cc(I)c(C(=O)O)c1I)Nc1c(I)cc(I)c(C(=O)O)c1I [Iodipamide, reference compound] | Soluble | N.E. |  |
| Pyrogallin | Soluble | N.E. |  |
| N=C1C=CC(=C(c2ccc(N)cc2)c2ccc(N)cc2)C=C1 [Pararosaniline pamoate, reference compound] | Soluble |  |  |
| O=C(O)CN(CCN(CC(=O)O)CC(=O)O)CC(=O)O [EDTA] |  |  | inhibition of Cdc7-Dbf4 kinase activity (control selection) [3]: inhibited the Cdc7-Dbf4 kinase activity |
| Tannic acid | Soluble |  | concentration at which compound inhibits luminescence detection [4]: 10 µM; percent inhibition, Set 1 ([2]; LUM method pilot screen, 10 μM compound in 1% DMSO, Set 1 of duplicate): 46%; percent inhibition, Set 2 ([2]; LUM method pilot screen, 10 μM compound in 1% DMSO, Set 2 of duplicate): 52%; averaged percent inhibition (two data sets) ([2]; LUM method pilot screen, 10 μM compound, average of duplicate): 49%; concentration at which ATP depletion is inhibited [5]: higher than 0.2 μM |
| CN(C)c1ccc(C(=C2C=CC(=[N+](C)C)C=C2)c2ccc(N(C)C)cc2)cc1 [Gentian violet, reference compound] | Soluble |  | inhibition at 10 µM ([2]; read-out: averaged percent inhibition (two data sets)): 23%; inhibition at 10 µM ([2]; read-out: percent inhibition, Set 1): 23%; inhibition at 10 µM ([2]; read-out: percent inhibition, Set 2): 23% |

Now from value to molecule, other results behind:

| Solubility [1] | ADP production IC50 [2] | Molecule | also measured |
| --- | --- | --- | --- |
| Soluble |  | O=C(O[C@@H]1Cc2c(O)cc(O)cc2O[C@@H]1c1cc(O)c(O)c(O)c1)c1cc(O)c(O)c(O)c1 [Epigallocatechin-3-monogallate] |  |
| Soluble | N.E. | O=c1cc(-c2cc(O)c(O)c(O)c2)oc2cc(O)cc(O)c12 [Hieracin] |  |
| Soluble |  | O=c1oc2c(O)c(O)cc3c(=O)oc4c(O)c(O)cc1c4c23 [Ellagic acid] |  |
| Soluble | N.E. ^1 | O=c1c(O)cccc2cc(O)c(O)c(O)c12 [Purpurogallin] |  |
| Soluble |  | CC(=O)Oc1cc(-c2coc3cc(OC(C)=O)c(OC(C)=O)c(OC(C)=O)c3c2=O)cc(OC(C)=O)c1OC(C)=O [Iriginol hexaaceatate] |  |
| Soluble |  | O=C(O[C@@H]1Cc2c(O)cc(O)cc2O[C@@H]1c1cc(O)c(=O)c2c(O)c(O)cc([C@H]3Oc4cc(O)cc(O)c4C[C@H]3O)c2c1)c1cc(O)c(O)c(O)c1 [Theaflavin monogallates] |  |
| Soluble |  | O=c1c(O)c(-c2ccc(O)c(O)c2)oc2cc(O)cc(O)c12 [Quercetin] |  |
| Soluble | N.E. | O=c1c(O)c(-c2ccc(O)c(O)c2)oc2cc(O)ccc12 [Fisetin] |  |

— PMC3643815 (Combinatorial chemistry & high throughput screening, 2011)
